Assay results from patent US12496329B2, “Methods of using and compositions including an incretin analog” (Eli Lilly and Company, priority 2021, dated 2025).
Read-outs that look alike come from different tables or passages of the source.

Assays:
[1] = SAD study: plasma pharmacokinetics after a single SC dose; assay type: in vivo; details: both sexes, human
Excerpt: Studies are designed to evaluate the safety, tolerability, pharmacodynamics (PD) and pharmacokinetics (PK) of the GGG tri-receptor agonist (SEQ ID NO:1) in healthy individuals. The SAD study is a randomized, investigator- and participant-blind, placebo-controlled, single-dose, single-site, dose-escalation study conducted in healthy individuals (e.g., overtly healthy females or males aged 21-65 years, inclusive, with a BMI 19-40 kg/m^2 at screening).
Six dose levels of the GGG tri-receptor agonist-0.1, 0.3, 1.0, 3.0, 4.5 and 6.0 mg—are explored in the SAD study, as well as placebo (i.e., 0.0 mg). A dose escalation of the GGG tri-receptor agonist is assessed in cohorts of healthy individuals (e.g., 6 individuals receiving the GGG tri-receptor agonist and 2 individuals receiving placebo per cohort). Staggered dosing is performed for each cohort, in which a new higher dose of the GGG tri-receptor agonist is administered. All injections are administered into the SC tissue of an abdominal wall, in a right or left lower quadrant.
Blood samples are collected pre-dose and at 4 hours (hr), 10 hr, 14 hr, 24 hr (Day 1), 48 hr (Day 2), 72 hr (Day 3), 96 hr (Day 4), 120 hr ([…]), 168 hr (Day 7), 336 hr (Day 14), 672 hr (Day 28) and 1008 hr (Day 42) post-dose to determine plasma concentration of the GGG tri-receptor agonist. Plasma concentrations are used to compute PK parameters using standard non-compartmental methods in a validated software program (Phoenix WinNonlin Version 8.1).
Bioanalytical methods: plasma samples are analyzed at Q2 Solutions (Ithaca, NY). The samples are analyzed for the GGG tri-receptor agonist using a validated liquid chromatography high resolution mass spectrometry method. The lower limit of quantification is 1.00 ng/mL and the upper limit of quantification is 500.00 ng/ml. Samples above a limit of quantification are diluted and reanalyzed to yield results within the calibrated range. The intra-assay accuracy (% relative error) during validation ranges from −6.3% to 15.7%. The intra-assay precision (% relative standard deviation) during validation is ≤14.7%. The GGG tri-receptor agonist is stable for up to 96 days when stored at about-20° C. and about −70° C.
Actual sampling times are used in the calculation of all PK parameters and concentration versus time profiles.
Concentration values below the quantifiable lower limit of the assay are excluded from the calculation of PK parameters, except for those prior to the first measurable concentration, which are set to a value of 0.
A concentration average is plotted for a given sample if two thirds of the individual data at the time point have quantifiable measurements. Concentrations at sampling times exceeding ±10% of the scheduled time ware excluded from the average concentration profiles.

[2] = Phase 2 study for obesity and NAFLD; assay type: in vivo, human; details: 16 week data; dose range 2-12 mg; steps of 1, 2, 3 or 4 mg QW SC
Excerpt: Studies are designed to further evaluate the effectiveness and safety of the GGG tri-receptor agonist (SEQ ID NO:1) in a larger population of obese individuals or overweight individuals. The study is a randomized, investigator- and participant-blind, placebo-controlled study conducted in obese individuals or overweight individuals without diabetes (i.e., females or males aged 18-75 years, inclusive, with obesity prior to randomization and with a BMI of ≥30 kg/m^2 at screening or overweight prior to randomization and with a BMI of ≥27 kg/m^2 […] <30 kg/m^2 at screening with weight-related comorbidities but without T2DM).
Dose escalation of the GGG tri-receptor agonist is assessed over 36 weeks in cohorts administered the GGG tri-receptor agonist, dulaglutide or placebo. A first cohort of 60 individuals is administered 2.0 mg of the GGG tri-receptor agonist for Weeks 1-4, 4.0 mg for the Weeks 5-8, 8.0 mg for Weeks 9-12, and then 12.0 mg for […]. […] An additional 125 individuals are assessed for NAFLD, which is characterized by ≥10% liver fat by magnetic resonance imaging proton density fat fraction (MRI-PDFF).
Body weight is assessed at pre-dose and at Week 24 and at Week 48 for % change in body weight. Mean change in waist circumference (cm) is measured at Week 24 or Week 48. […]

CC[C@H](C)[C@H](NC(=O)[C@H](Cc1ccccc1)NC(=O)[C@H](C)NC(=O)C(C)(C)NC(=O)[C@H](CCC(N)=O)NC(=O)[C@H](C)NC(=O)[C@H](CCCCNC(=O)COCCOCCNC(=O)CC[C@H](NC(=O)CCCCCCCCCCCCCCCCCCC(=O)O)C(=O)O)NC(=O)[C@H](CCCCN)NC(=O)[C@H](CC(=O)O)NC(=O)[C@H](CC(C)C)NC(=O)[C@](C)(CC(C)C)NC(=O)[C@@H](NC(=O)[C@H](CO)NC(=O)[C@H](Cc1ccc(O)cc1)NC(=O)[C@H](CC(=O)O)NC(=O)[C@H](CO)NC(=O)[C@@H](NC(=O)[C@H](Cc1ccccc1)NC(=O)[C@@H](NC(=O)CNC(=O)[C@H](CCC(N)=O)NC(=O)C(C)(C)NC(=O)[C@@H](N)Cc1ccc(O)cc1)[C@@H](C)O)[C@@H](C)O)[C@@H](C)CC)C(=O)N[C@@H](CCC(=O)O)C(=O)N[C@@H](Cc1ccc(O)cc1)C(=O)N[C@@H](CC(C)C)C(=O)N[C@@H](CC(C)C)C(=O)N[C@@H](CCC(=O)O)C(=O)NCC(=O)NCC(=O)N1CCC[C@H]1C(=O)N[C@@H](CO)C(=O)N[C@@H](CO)C(=O)NCC(=O)N[C@@H](C)C(=O)N1CCC[C@H]1C(=O)N1CCC[C@H]1C(=O)N1CCC[C@H]1C(=O)N[C@@H](CO)C(N)=O [GGG tri-receptor agonist, Y-Aib-QGTFTSDYSI-αMeL-LDKK((2-[2-(2-amino-ethoxy)-ethoxy]-acetyl)-(γGlu)-CO-(CH2)18-CO2H)AQ-Aib-AFIEYLLEGGPSSGAPPPS-NH2]
AUC(0-inf) ([1]; 0.1 mg single SC dose): 3750 ng·h/mL
CL/F ([1]; 0.1 mg single SC dose): 0.445 mL/min
Cmax ([1]; 0.1 mg single SC dose): 11 ng/mL
Tmax ([1]; 0.1 mg single SC dose): 72 h
AUC(0-inf) ([1]; 0.3 mg single SC dose): 10300 ng·h/mL
CL/F ([1]; 0.3 mg single SC dose): 0.485 mL/min
Cmax ([1]; 0.3 mg single SC dose): 44.8 ng/mL
Tmax ([1]; 0.3 mg single SC dose): 72.2 h
AUC(0-inf) ([1]; 1.0 mg single SC dose): 28300 ng·h/mL
CL/F ([1]; 1.0 mg single SC dose): 0.59 mL/min
Cmax ([1]; 1.0 mg single SC dose): 110 ng/mL
Tmax ([1]; 1.0 mg single SC dose): 48 h
AUC(0-inf) ([1]; 3.0 mg single SC dose): 69100 ng·h/mL
CL/F ([1]; 3.0 mg single SC dose): 0.723 mL/min
Cmax ([1]; 3.0 mg single SC dose): 251 ng/mL
Tmax ([1]; 3.0 mg single SC dose): 14 h
AUC(0-inf) ([1]; 4.5 mg single SC dose): 130000 ng·h/mL
CL/F ([1]; 4.5 mg single SC dose): 0.577 mL/min
Cmax ([1]; 4.5 mg single SC dose): 589 ng/mL
Tmax ([1]; 4.5 mg single SC dose): 12 h
AUC(0-inf) ([1]; 6.0 mg single SC dose): 150000 ng·h/mL
CL/F ([1]; 6.0 mg single SC dose): 0.668 mL/min
Cmax ([1]; 6.0 mg single SC dose): 635 ng/mL
Tmax ([1]; 6.0 mg single SC dose): 24 h
half-life ([1]; sc, 0.1 mg, 0.1 mg single SC dose, read-out: t½ (converted)): 165 h
half-life ([1]; sc, 0.3 mg, 0.3 mg single SC dose, read-out: t½ (converted)): 139 h
half-life ([1]; sc, 1 mg, 1.0 mg single SC dose, read-out: t½ (converted)): 134 h
half-life ([1]; sc, 3 mg, 3.0 mg single SC dose, read-out: t½ (converted)): 134 h
half-life ([1]; sc, 4.5 mg, 4.5 mg single SC dose, read-out: t½ (converted)): 163 h
half-life ([1]; sc, 6 mg, 6.0 mg single SC dose, read-out: t½ (converted)): 149 h
half-life ([1]; subcutaneous, single dose, read-out: mean terminal t½): 120 to 168 h
tolerability profile of dosing regimens [2]: acceptable tolerability profiles
